In patent publication US12383533B2 (Frost Biologic, Inc., priority 2014, dated 2025):

How the values were obtained:
porcine neuronal tubulin = experiment: Tubulin Polymerization Assay; assay type: biochemical; settings: porcine tubulin 2.0 mg/ml, 37° C., fluorescence; read-out: IC50 (tubulin polymerization, from Vmax)
From the text: Tubulin Polymerization Assay
The Tubulin Polymerization Assay uses porcine neuronal tubulin and measurements are based on fluorescence enhancement due to the incorporation of a fluorescent reporter into microtubules as polymerization occurs. The assay generates a polymerization curve representing the three phases of microtubule formation (nucleation, growth and equilibrium). IC50 values for tested compounds can be generated from the observed polymerization curves.
Procedure: All compounds dilutions (in DMSO) were prepared prior to the following steps. A Molecular Devices M2 plate reader was set to 37° C. Once the internal temperature of the plate reader reached 37° C. a 96 well plate (Corning Costar, at. #3686) was placed in the fluorimeter and allowed to warm to 37° C. for 30 minutes. A total of 10 mg of porcine tubulin was resuspended in […] of Polymerization Buffer [Buffer 1 (80 mM PIPES pH 6.9, 2.0 mM MgCl2, 0.5 mM EGTA, 1.0 mM GTP and 10 μM fluorescent reporter) supplemented with 20% glycerol] to generate a 2.0 mg/ml tubulin stock and this was kept on ice. The 50× compound stocks in 100% DMSO were spotted 1 μl/well in duplicate into the wells of the 96-well plate at 37° C. and allowed to re-warm for 5 minutes at 37° C. During this incubation the 2.0 mg/ml tubulin stock was placed in a disposable plastic trough and allowed to warm briefly at room temperature. To initiate the reaction, 50 μl/well of 2.0 mg/ml tubulin in Polymerization Buffer was added to each well using a multi-channel pipettor and the fluorescence measurements were started immediately.
The maximal velocity (Vmax) of tubulin polymerization was determined using linear regression of the averaged fluorescence data at each time point using GraphPad Prism 5.0 software. The Vmax determinations for each compound at each concentration were then normalized to reactions that contained DMSO (2% final concentration) but no test compounds. This converted the data to % Activity, which refers to the percent of the Vmax of an uninhibited reaction. The concentration response curves were then plotted as the % Activity versus the Log 10 of the compound concentration in micromolar and fit by non-linear regression to a 4-parameter sigmoidal dose-response equation using GraphPad Prism 5.0 software to determine the IC50 for each compound.

A2780 cells = experiment: Cell Viability Assay (ATPlite 1step), A2780; assay type: cell-based; settings: Homo sapiens, 72 hours; for percent inhibition of cell viability at 4 µM: A2780, 4 uM compound, read-out: Cell Viability % inhibition A2780 (4 uM Cpd); for percent inhibition of cell viability at 20 µM: A2780, 20 uM compound, read-out: Cell Viability % inhibition A2780 (20 uM Cpd)
How it was run: (§1)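 Cells seeded at 1000/well, grown 24 h at 37 °C/5% CO2, then exposed to compounds (DMSO stock diluted in media) for 72 h; viability read by ATPlite 1step luminescence. A2780 and PC3 in RPMI, MCF-7 in K-12F, each with 10% FBS.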

MCF-7 cells = experiment: Cell Viability Assay (ATPlite 1step), MCF-7; assay type: cell-based; settings: Homo sapiens, MCF7, 72 hours; for percent inhibition of cell viability at 4 µM: MCF-7, 4 uM compound, read-out: Cell Viability % inhibition MCF-7 (4 uM Cpd); for percent inhibition of cell viability at 20 µM: MCF-7, 20 uM compound, read-out: Cell Viability % inhibition MCF-7 (20 uM Cpd)
Method: Cell Viability Assay Protocol
Cells were trypsinized, counted, and re-seeded into a 384-well tissue culture plate at 1000 cells per well in […] media. Cells were incubated at 37° C. in an atmosphere of 5% CO2 for 24 hours. Experimental compounds, initially dissolved in DMSO and diluted further in media were added to the wells and incubated for 72 hours. Cell viability was measured using the ATPlite 1step Luminescence Detection Assay system (Perkin Elmer) as described in the Assay kit instructions.
Cell Culture Lines and Media: (1) A2780 cells were cultured in RPMI media with 10% FBS and 1% antibiotics. Cells were typically split every 3-5 days at a 1:10 dilution; (2) PC3 cells were cultured in RPMI media with 10% FBS and 1% antibiotics. Cells were typically split every 3-5 days at a 1:4 dilution; (3) MCF-7 cells were grown in K-12F media with 10% FBS and 1% antibiotics. Cells were typically split every 3-5 days at a 1:10 dilution.

PC3 cells = experiment: Cell Viability Assay (ATPlite 1step), PC3; assay type: cell-based; settings: Homo sapiens, PC-3, 72 hours; for percent inhibition of cell viability at 4 µM: PC3, 4 uM compound, read-out: Cell Viability % inhibition PC3 (4 uM Cpd); for percent inhibition of cell viability at 20 µM: PC3, 20 uM compound, read-out: Cell Viability % inhibition PC3 (20 uM Cpd)
How it was run: as §1

| Compound | IC50 (porcine neuronal tubulin) | percent inhibition of cell viability at 4 µM (A2780 cells) | percent inhibition of cell viability at 20 µM (A2780 cells) | percent inhibition of cell viability at 4 µM (MCF-7 cells) | percent inhibition of cell viability at 20 µM (MCF-7 cells) | percent inhibition of cell viability at 4 µM (PC3 cells) | percent inhibition of cell viability at 20 µM (PC3 cells) |
| --- | --- | --- | --- | --- | --- | --- | --- |
| Cc1ncc(C(=O)Nc2ccc(-c3ccsc3)cn2)cn1 [Compound 61, 2-methyl-N-[5-(thiophen-3-yl)pyridin-2-yl]pyrimidine-5-carboxamide] | 260 nM | 86.5% | 89.7% | 73.3% | 72.9% | 58.3% | 70.6% |
| O=C(Nc1ccc(-c2cccc(Cl)c2)cn1)c1cncnc1 [Compound 3, N-[5-(3-chlorophenyl)pyridin-2-yl]pyrimidine-5-carboxamide] | 1450 nM | 84.8% | 90.2% | 50.6% | 56.8% | 60.9% | 68.3% |
| O=C(Nc1ccc(-c2cccc(C3CC3)c2)cn1)c1cncnc1 [Compound 16, N-[5-(3-cyclopropylphenyl)pyridin-2-yl]pyrimidine-5-carboxamide] | 480 nM | 90.4% | 92.1% | 70.2% | 78.4% | 73.7% | 77.7% |
| O=C(Nc1ccc(-c2ccccc2)cn1)c1cncnc1 [Compound 1] | 1400 nM | 84.2% | 93.6% | 46.1% | 68.4% | 59.1% | 72.2% |

Further lines, with some results ahead:

| IC50 (porcine neuronal tubulin) | Compound | percent inhibition of cell viability at 4 µM (A2780 cells) | percent inhibition of cell viability at 20 µM (A2780 cells) | percent inhibition of cell viability at 4 µM (MCF-7 cells) | percent inhibition of cell viability at 20 µM (MCF-7 cells) | percent inhibition of cell viability at 4 µM (PC3 cells) | percent inhibition of cell viability at 20 µM (PC3 cells) |
| --- | --- | --- | --- | --- | --- | --- | --- |
| 3840 nM | Cc1ncc(C(=O)Nc2ncc(-c3cccc(OC4CC4)c3)cc2F)cn1 [Compound 66, N-{5-[3-(cyclopropyloxy)phenyl]-3-fluoropyridin-2-yl}-2-methylpyrimidine-5-carboxamide] | 89% | 88.4% | 75% | 76% | 66% | 70.6% |
| 2420 nM | Cc1ncc(C(=O)Nc2ncc(-c3cccc(C4CC4)c3)cc2F)cn1 [Compound 67, N-[5-(3-cyclopropylphenyl)-3-fluoropyridin-2-yl]-2-methylpyrimidine-5-carboxamide] | 87.1% | 87.9% | 60% | 63.7% | 56% | 61.6% |
| 2350 nM | Cc1ncc(C(=O)Nc2ncc(-c3ccsc3)cc2F)cn1 [Compound 69, N-[3-fluoro-5-(thiophen-3-yl)pyridin-2-yl]-2-methylpyrimidine-5-carboxamide] | 84.7% | 90.1% | 56.2% | 61.3% | 57.6% | 64.5% |
| 120 nM | Cc1ncc(C(=O)Nc2ccc(-c3cccc(S(=O)(=O)C4CC4)c3)c(C)n2)cn1 [Compound 64, N-{5-[3-(cyclopropylsulfonyl)phenyl]-6-methylpyridin-2-yl}-2-methylpyrimidine-5-carboxamide] | 80% | 81.5% | 73.5% | 74.5% | 59.4% | 62.7% |
